The structures appear in SMILES notation.

This assay has as its target T1, human TRPC6 (Homo sapiens, UniProt Q9Y210).
T1 construct: expressed in transfected cells
T1 sequence (Q9Y210 1-931): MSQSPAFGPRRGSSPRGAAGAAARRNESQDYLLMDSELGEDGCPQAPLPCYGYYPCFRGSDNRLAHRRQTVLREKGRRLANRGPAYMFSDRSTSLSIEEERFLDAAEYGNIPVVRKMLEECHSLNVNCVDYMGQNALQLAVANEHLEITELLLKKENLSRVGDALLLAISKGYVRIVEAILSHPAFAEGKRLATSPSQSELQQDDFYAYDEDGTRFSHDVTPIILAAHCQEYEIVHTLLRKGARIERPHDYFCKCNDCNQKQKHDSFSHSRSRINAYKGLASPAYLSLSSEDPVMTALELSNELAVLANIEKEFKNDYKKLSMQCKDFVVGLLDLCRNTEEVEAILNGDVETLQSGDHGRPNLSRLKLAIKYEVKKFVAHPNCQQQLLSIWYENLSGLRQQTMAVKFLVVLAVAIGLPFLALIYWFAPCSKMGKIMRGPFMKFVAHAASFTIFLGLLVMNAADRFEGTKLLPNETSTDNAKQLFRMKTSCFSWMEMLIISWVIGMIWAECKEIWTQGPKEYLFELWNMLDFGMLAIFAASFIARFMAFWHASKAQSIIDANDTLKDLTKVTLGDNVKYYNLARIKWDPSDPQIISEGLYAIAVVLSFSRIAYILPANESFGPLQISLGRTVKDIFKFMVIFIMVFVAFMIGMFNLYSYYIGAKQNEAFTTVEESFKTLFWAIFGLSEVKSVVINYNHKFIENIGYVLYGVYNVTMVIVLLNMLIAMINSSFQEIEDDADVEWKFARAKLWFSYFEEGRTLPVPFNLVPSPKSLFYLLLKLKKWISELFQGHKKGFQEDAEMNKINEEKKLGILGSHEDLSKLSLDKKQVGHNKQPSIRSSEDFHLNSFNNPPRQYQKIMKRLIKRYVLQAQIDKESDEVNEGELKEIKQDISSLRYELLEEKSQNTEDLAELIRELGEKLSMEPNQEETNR
Briefly: High throughput screening assay: Fluo4/AM calcium fluorescence in HEK293/TREx cells expressing human TRPC6, agonist GSK1702934A (single concentration 10 μM and IC50 curves). The settings on record: antagonist effect against human TRPC6, 7 concentrations 20 μM to 0.027 μM, triplicate. The class given is cell-based. Summed up:
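HEK293/TREx cells stably carrying tetracycline-induced (1 μg/ml) human TRPC6, loaded with Fluo4/AM (0.5 μM, 60 min, RT), pretreated 2 min with compound (10 μM final in screen), then stimulated with GSK1702934A in high-Ca2+ Ringer's (20 mM Ca2+ final). Fluorescence ratio over ~3 min normalized to no-compound and control-blocker wells; IC50 from triplicate curves.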
Consider `COc1cc(C(=O)N2CCC(c3ccc(N)nn3)CC2)ccc1-c1ccc(OCC(F)(F)F)cc1` [Compound 58, [4-(6-Amino-pyridazin-3-yl)-piperidin-l-yl]-[2-methoxy-4′-(2,2,2-trifluoro-ethoxy)-biphenyl-4-yl]-methanone], for which the IC50 stood at 81 nM.

Consider `COc1ccc(-c2cnc(C(=O)N3CCC(c4ccc(N)nn4)CC3)cc2OC)cn1` [Compound 46, [4-(6-Amino-pyridazin-3-yl)-piperidin-1-yl]-(4,6′-dimethoxy-[3,3′]bipyridinyl-6-yl)-methanone], for which the IC50 came out at 4000 nM.

Take `COC[C@H]1CN(c2cnc(N)cc2OC)CCN1C(=O)c1cc(OC)c(-c2ccc(F)cc2)cn1` [Compound 98, [(R)-4-(6-Amino-4-methoxy-pyridin-3-yl)-2-methoxymethyl-piperazin-1-yl]-[5-(4-fluoro-phenyl)-4-methoxy-pyridin-2-yl]-methanone]: the IC50 stood at 200 nM.

Consider `COc1nc(C(=O)N2CCC(c3ccc(N)nn3)CC2)ccc1-c1ccc(C(F)(F)F)cc1` [Compound 64, [4-(6-Amino-pyridazin-3-yl)-piperidin-1-yl]-[6-methoxy-5-(4-trifluoromethyl-phenyl)-pyridin-2-yl]-methanone], for which the IC50 turned out to be 1300 nM.

With `COc1cc(C(=O)N2CCC(c3ccc(N)nc3)CC2)ncc1-c1ccc(C(F)(F)F)nc1` [Compound 97, (6-Amino-3′,4′,5′,6′-tetrahydro-2′H-[3,4′]bipyridinyl-1′-yl)-(4-methoxy-6′-trifluoromethyl-[3,3′]bipyridinyl-6-yl)-methanone], the IC50 was 69 nM.

As to `COc1cc(C(=O)N2CCN(c3cnc(N)cc3OC)C[C@@H]2CO)ncc1-c1ccc(C(F)(F)F)cc1` [Compound 95, [(R)-4-(6-Amino-4-methoxy-pyridin-3-yl)-2-hydroxymethyl-piperazin-1-yl]-[4-methoxy-5-(4-trifluoromethyl-phenyl)-pyridin-2-yl]-methanone], the IC50 stood at 580 nM.

Take `COc1cc(C(=O)N2CCN(c3cnc(N)cc3OC)CC2)ncc1-c1ccccc1` [Compound 105, 4-Methoxy-5-[4-(4-methoxy-5-phenylpyridine-2-carbonyl)piperazin-1-yl]pyridin-2-amine]: the IC50 came out at 32 nM.

For `COc1cc(C(=O)N2CCC(c3nnc(N)cc3OC)CC2)ncc1-c1ccc(C(F)(F)F)nc1` [Compound 86, [4-(6-Amino-4-methoxy-pyridazin-3-yl)-piperidin-1-yl]-(4-methoxy-6′-trifluoromethyl-[3,3′]bipyridinyl-6-yl)-methanone], the IC50 is 660 nM.

Regarding `CC(C)Cc1ccc(-c2ccc(C(=O)N3CCC(c4ccc(N)nn4)CC3)cc2)cc1` [Compound 83, [4-(6-Amino-pyridazin-3-yl)-piperidin-1-yl]-(4′-isobutyl-biphenyl-4-yl)-methanone], the IC50 was 8700 nM.

With `COc1cc(C(=O)N2CCC(c3nnc(N)cc3OC)CC2)ncc1-c1ccccc1` [Compound 87, [4-(6-Amino-4-methoxy-pyridazin-3-yl)-piperidin-1-yl]-(4-methoxy-5-phenyl-pyridin-2-yl)-methanone], the IC50 stood at 540 nM.

As to `COc1cc(C(=O)N2CCC(c3ccc(N)nn3)CC2)ncc1-c1ccc2c(c1)OCC2` [Compound 16, [4-(6-Amino-pyridazin-3-yl)-piperidin-1-yl]-[5-(2,3-dihydro-benzofuran-6-yl)-4-methoxy-pyridin-2-yl]-methanone], the IC50 was found to be 390 nM.

Turning to `Cc1cc(-c2ccc(C(F)(F)F)cc2)ccc1C(=O)N1CCC(c2ccc(N)nn2)CC1` [Compound 69, [4-(6-Amino-pyridazin-3-yl)-piperidin-1-yl]-(3-methyl-4′-trifluoromethyl-biphenyl-4-yl)-methanone], the IC50 amounted to 360 nM.

For `COc1cc(C(=O)N2CCC(c3ccc(N)nn3)CC2)ncc1-c1ccc(OCC2CC2)cc1` [Compound 17, [4-(6-Amino-pyridazin-3-yl)-piperidin-1-yl]-[5-(4-cyclopropylmethoxy-phenyl)-4-methoxy-pyridin-2-yl]-methanone], the IC50 is 75 nM.

Take `COc1cc(C(=O)N2CCC(c3ccc(N)nn3)CC2)ccc1-c1ccc(OCC2(C)CC2)nc1` [Compound 79, 6-[1-(3-Methoxy-4-{6-[(1-methylcyclopropyl)methoxy]pyridin-3-yl}benzoyl)piperidin-4-yl]pyridazin-3-amine]: the IC50 came out at 120 nM.

`COc1cc(C(=O)N2CCC(c3ccc(N)nn3)CC2)ncc1-c1ccc(Cl)cc1` [Compound 40, [4-(6-Amino-pyridazin-3-yl)-piperidin-1-yl]-[5-(4-chloro-phenyl)-4-methoxy-pyridin-2-yl]-methanone]: the IC50 was determined as 73 nM.

In the case of `COc1cc(C(=O)N2C[C@@H]3C[C@H]2CN3c2ccc(N)nn2)ncc1-c1ccc(C(F)(F)F)cc1` [Compound 116, [(1S,4S)-5-(6-Amino-pyridazin-3-yl)-2,5-diaza-bicyclo[2.2.1]hept-2-yl]-[4-methoxy-5-(4-trifluoromethyl-phenyl)-pyridin-2-yl]-methanone], the IC50 amounted to 190 nM.

With `COc1cc(C(=O)N2CCC(c3ccc(N)nc3)CC2)ncc1-c1ccc(F)cc1` [Compound 72, (6-Amino-3′,4′,5′,6′-tetrahydro-2′H-[3,4′]bipyridinyl-1′-yl)-[5-(4-fluoro-phenyl)-4-methoxy-pyridin-2-yl]methanone], the IC50 stood at 27 nM.

On to `COc1cc(C(=O)N2CCC(c3ccc(N)nn3)CC2)ncc1-c1ccc(F)c(OCC(F)(F)F)c1` [Compound 15, [4-(6-Amino-pyridazin-3-yl)-piperidin-1-yl]-{5-(4-fluoro-3-(2,2,2-trifluoro-ethoxy)-phenyl]-4-methoxy-pyridin-2-yl}-methanone], for which the IC50 is 1700 nM.

As to `COc1cc(C(=O)N2CCC(c3ccc(N)nn3)CC2)ccc1-c1ccc(O[C@@H](C)C2CC2)nc1` [Compound 78, [4-(6-Amino-pyridazin-3-yl)-piperidin-1-yl]-{4-[6-((S)-1-cyclopropyl-ethoxy)-pyridin-3-yl]-3-methoxy-phenyl}-methanone], the IC50 was 460 nM.

For `Nc1ccc(N2CCN(C(=O)c3ccc(-c4ccc(C(F)(F)F)cc4)cc3)CC2)cn1` [Compound 12, [4-(6-Amino-pyridin-3-yl)-piperazin-1-yl]-(4′-trifluoromethyl-biphenyl-4-yl)-methanone], the IC50 came to 2400 nM.

`COc1cc(C(=O)N2CCC(c3ccc(N)nn3)CC2)ncc1-c1ccc(F)c(F)c1` [Compound 33, [4-(6-Amino-pyridazin-3-yl)-piperidin-1-yl]-[5-(3,4-difluoro-phenyl)-4-methoxy-pyridin-2-yl]-methanone]: the IC50 was found to be 62 nM.

With `COc1cc(C(=O)N2CCC(c3ccc(N)nn3)CC2)ncc1-c1cnc(OCC(F)(F)F)nc1` [Compound 54], the IC50 was 830 nM.

Turning to `Nc1ccc(C2CCN(C(=O)c3ccc4c(c3)oc3ccccc34)CC2)nn1` [Compound 11, [4-(6-Amino-pyridazin-3-yl)-piperidin-1-yl]-dibenzofuran-3-yl-methanone], the IC50 was found to be 2000 nM.

For `COc1cc(C(=O)N2CCC(c3ccc(N)nn3)CC2)ncc1-c1ccc(C)c(C#N)c1` [Compound 51, 5-{6-[4-(6-Amino-pyridazin-3-yl)-piperidine-1-carbonyl]-4-methoxy-pyridin-3-yl}-2-methyl-benzonitrile], the IC50 is 900 nM.

With `COc1cc(C(=O)N2CCC(c3ccc(N)nn3)CC2)ncc1-c1ccc(OC(C)C)c(F)c1` [Compound 20, [4-(6-Amino-pyridazin-3-yl)-piperidin-1-yl]-[5-(3-fluoro-4-isopropoxy-phenyl)-4-methoxy-pyridin-2-yl]-methanone], the IC50 turned out to be 450 nM.

With `COc1cc(C(=O)N2CCC(c3ccc(N)nn3)CC2)ncc1-c1ccc(C(F)(F)F)c(OC)c1` [Compound 25], the IC50 amounted to 340 nM.

With `COc1cc(C(=O)N2CCC(c3ccc(N)nn3)CC2)ncc1-c1ccc(OC2CCCC2)cc1` [Compound 23, [4-(6-Amino-pyridazin-3-yl)-piperidin-1-yl]-[5-(4-cyclopentyloxy-phenyl)-4-methoxy-pyridin-2-yl]-methanone], the IC50 worked out at 69 nM.

Consider `Nc1ccc(C2CCN(C(=O)c3ccc(-c4cccc(F)c4)cc3)CC2)nn1` [Compound 8, [4-(6-Amino-pyridazin-3-yl)-piperidin-1-yl]-(3′-fluoro-biphenyl-4-yl)-methanone], for which the 50% inhibitory concentration (IC50) was 6700 nM.

Regarding `Nc1ccc(C2CCN(C(=O)c3ccc(-c4cccc(Cl)c4)cc3)CC2)nn1` [Compound 6, [4-(6-Amino-pyridazin-3-yl)-piperidin-1-yl]-(3′-chloro-biphenyl-4-yl)-methanone], the IC50 was determined as 4400 nM.

(Values after patent publication US11485740B2, “Inhibitors of TRPC6” (Boehringer Ingelheim International GmbH, priority 2018, dated 2022).)
